These are literature values, as cited in publication PMC11547388, “Toxicokinetics and Tissue Distribution of the Hepatotoxic Triterpenoid Saponin Pterocephin A in Rats Using the Ultra-Performance Liquid Chromatography–Tandem Mass Spectrometry (UPLC-MS/MS) Method” (Molecules, 2024).

Details of this data set: method as in PMID 37253396. The conditions noted are these: in vivo, HPLC-QQQ-MS/MS.

In the case of `C=C(C)[C@@H]1CC[C@]2(C(=O)O[C@@H]3O[C@H](CO[C@@H]4O[C@H](CO)[C@@H](O[C@@H]5O[C@@H](C)[C@H](O)[C@@H](O)[C@H]5O)[C@H](O)[C@H]4O)[C@@H](O)[C@H](O)[C@H]3O)CC[C@]3(C)[C@H](CC[C@@H]4[C@@]5(C)CC[C@H](O[C@@H]6OC[C@H](O)[C@H](O)[C@H]6O[C@@H]6O[C@@H](C)[C@H](O)[C@@H](O)[C@H]6O)[C@@](C)(CO)[C@@H]5CC[C@]43C)[C@@H]12` [AB4, anemoside B4], the bioavailability result is “less than 1%”.
